Assay results: patent US10206399B2, “Herbicidal composition comprising uracil compound as active ingredient” (Dongbu Farm Hannong Co., Ltd., priority 2012, dated 2019)
Like-named read-outs stand apart in the source and are kept apart here.

Columns and labels:
[1] = system: ryegrass; test: Nonselective composition of 1 uracil compound and 2 herbicidally active compounds, plant mortality; assay type: in vivo
Description: (§1) X is % damage by uracil compound (a) of formula 1 at the rate of application of p kg/ha; Y is % damage by conventional herbicidal compound (b) at the rate of application of q kg/ha; and E is the expected damage caused by compounds (a) and (b) at a rate of application of p and q kg/ha.
(§2) The expected activity for a given combination of two herbicides can be calculated using equation 1 above.

[2] = system: wild amaranth; test: as above; assay type: in vivo
Description: as §1, §2

[3] = system: Alopecurus aequalis; test: Dry field farming herbicidal composition test, plant mortality; assay type: in vivo; details: in % (unit assumed)
Description: as §1, §2

[4] = system: Porippa islandica; test: as above; assay type: in vivo
Description: as §1, §2

[5] = system: Capsella bursapastoris; test: as above; assay type: in vivo; details: in % (unit assumed)
Description: as §1, §2

[6] = system: Lamium amplexicaule; test: as above; assay type: in vivo; details: in % (unit assumed)
Description: as §1, §2

[7] = system: wheat; test: Dry field farming herbicidal composition test, plant mortality (crop)
Description: as §1, §2

[8] = system: Echinochloa crus; details: for Echinochloa crus mortality, measured value: 20 days after treatment; for plant mortality, measured value: Echinochloa crus
Description: as §1, §2

[9] = system: Digitaria sanguinalis; details: for Digitaria sanguinalis mortality, measured value: 20 days after treatment; for plant mortality, measured value: Digitaria sanguinalis
Description: as §1, §2

[10] = system: Abutilon theophrasti; details: for Abutilon theophrasti mortality, measured value: 20 days after treatment; for plant mortality, measured value: Abutilon theophrasti
Description: as §1, §2

[11] = system: Aeschynomene indica; details: for Aeschynomene indica mortality, measured value: 20 days after treatment; for plant mortality, measured value: Aeschynomene indica
Description: as §1, §2

[12] = system: Xanthium spinosum; details: for Xanthium spinosum mortality, measured value: 20 days after treatment; for plant mortality, measured value: Xanthium spinosum
Description: as §1, §2

[13] = 480 h, read-out: ryegrass mortality (measured value)
[14] = Amaranthus caudatus, 480 h, read-out: Wild amaranth mortality (measured value)

## CCOCN(C(=O)CCl)c1c(C)cccc1CC [Acetochlor]
[1]; [13]
  pest or weed control at 375 g/ha: 30%
[2]; [14]
  pest or weed control at 375 g/ha: 10%

## Nc1cc(Cl)nc(C(=O)O)c1Cl [Aminopyralid]
[1]; 250 g ai/ha
  ryegrass mortality (measured value): 0
[2]; 250 g ai/ha
  Wild amaranth mortality (measured value): 20

## COC(=O)NS(=O)(=O)c1ccc(N)cc1 [Asulam]
[1]; [13]
  pest or weed control at 1250 g/ha: 25%
[2]; [14]
  pest or weed control at 1250 g/ha: 20%

## CCNc1nc(Cl)nc(NC(C)C)n1 [Atrazine]
[1]; [13]
  pest or weed control at 200 g/ha: 30%
[2]; [14]
  pest or weed control at 200 g/ha: 25%

## C[C@H](NC(=O)[C@H](C)NC(=O)[C@@H](N)CCP(C)(=O)O)C(=O)O [Bilanafos]
[1]; 480 h, 500 g ai/ha, read-out: ryegrass mortality (measured value)
  pest or weed control at 500 g/ha: 30%
[2]; Amaranthus caudatus, 480 h, 500 g ai/ha, read-out: Wild amaranth mortality (measured value)
  pest or weed control at 500 g/ha: 15%

## CC1(C)CON(Cc2ccccc2Cl)C1=O [Clomazone]
[1]; [13]
  pest or weed control at 175 g/ha: 15%
[2]; [14]
  pest or weed control at 175 g/ha: 30%

## O=C(O)c1nc(Cl)ccc1Cl [Clopyralid]
[1]; [13]
  pest or weed control at 125 g/ha: 0%
[2]; [14]
  pest or weed control at 125 g/ha: 10%

## CC(Oc1ccc(Oc2ccc(Cl)cc2Cl)cc1)C(=O)O (centres unmarked) [Diclofop]
[1]; [13]
  pest or weed control at 175 g/ha: 30%
[2]; [14]
  pest or weed control at 175 g/ha: 0%

## O=C(Nc1ccc(F)cc1F)c1cccnc1Oc1cccc(C(F)(F)F)c1 [Diflufenican]
[3]; 37.5 g/ha
  Alopecurus aequalis mortality, measured value: 0
[3]; 75 g/ha
  Alopecurus aequalis mortality, measured value: 0
[3]; 150 g/ha
  Alopecurus aequalis mortality, measured value: 0
[4]; 37.5 g/ha
  Porippa islandica mortality, measured value: 5
[4]; 75 g/ha
  Porippa islandica mortality, measured value: 20
[4]; 150 g/ha
  Porippa islandica mortality, measured value: 40
[5]; 37.5 g/ha
  Capsella bursapastoris mortality, measured value: 6
[5]; 75 g/ha
  Capsella bursapastoris mortality, measured value: 21
[5]; 150 g/ha
  Capsella bursapastoris mortality, measured value: 45
[6]; 37.5 g/ha
  Lamium amplexicaule mortality, measured value: 10
[6]; 75 g/ha
  Lamium amplexicaule mortality, measured value: 24
[6]; 150 g/ha
  Lamium amplexicaule mortality, measured value: 47
[7]; 37.5 g/ha
  Wheat mortality, measured value: 0
[7]; 75 g/ha
  Wheat mortality, measured value: 0
[7]; 150 g/ha
  Wheat mortality, measured value: 1

## C/C(=N\NC(=O)Nc1cc(F)cc(F)c1)c1ncccc1C(=O)O [Diflufenzopyr]
[1]; [13]
  pest or weed control at 12.5 g/ha: 20%
[2]; [14]
  pest or weed control at 12.5 g/ha: 20%

## CCOC1Oc2ccc(OS(C)(=O)=O)cc2C1(C)C (centres unmarked) [Ethofumesate]
[1]; [13]
  pest or weed control at 250 g/ha: 25%
[2]; [14]
  pest or weed control at 250 g/ha: 20%

## CP(=O)(O)CCC(N)C(=O)O (centres unmarked) [Glufosinate-ammonium]
[1]; [13]
  pest or weed control at 150 g/ha: 10%
[2]; [14]
  pest or weed control at 150 g/ha: 20%

## CC(C)N.O=C(O)CNCP(=O)(O)O [Glyphosate-IPA]
[1]; 300 g ai/ha
  ryegrass mortality (measured value): 10
[2]; 300 g ai/ha
  Wild amaranth mortality (measured value): 10

## COCc1cnc(C2=NC(C)(C(C)C)C(=O)N2)c(C(=O)O)c1 (centres unmarked) [Imazamox]
[1]; [13]
  pest or weed control at 8.3 g/ha: 30%
[2]; [14]
  pest or weed control at 8.3 g/ha: 20%

## CC(C)c1ccc(NC(=O)N(C)C)cc1 [Isoproturon]
[3]; 150 g/ha
  Alopecurus aequalis mortality, measured value: 15
[3]; 300 g/ha
  Alopecurus aequalis mortality, measured value: 32
[3]; 600 g/ha
  Alopecurus aequalis mortality, measured value: 64
[4]; 150 g/ha
  Porippa islandica mortality, measured value: 10
[4]; 300 g/ha
  Porippa islandica mortality, measured value: 26
[4]; 600 g/ha
  Porippa islandica mortality, measured value: 53
[5]; 150 g/ha
  Capsella bursapastoris mortality, measured value: 11
[5]; 300 g/ha
  Capsella bursapastoris mortality, measured value: 29
[5]; 600 g/ha
  Capsella bursapastoris mortality, measured value: 63
[6]; 150 g/ha
  Lamium amplexicaule mortality, measured value: 12
[6]; 300 g/ha
  Lamium amplexicaule mortality, measured value: 25
[6]; 600 g/ha
  Lamium amplexicaule mortality, measured value: 49
[7]; 150 g/ha
  Wheat mortality, measured value: 0
[7]; 300 g/ha
  Wheat mortality, measured value: 0
[7]; 600 g/ha
  Wheat mortality, measured value: 1

## CCC(C)(CC)c1cc(NC(=O)c2c(OC)cccc2OC)on1 [Isoxaben]
[1]; [13]
  pest or weed control at 31 g/ha: 0%
[2]; [14]
  pest or weed control at 31 g/ha: 30%

## COC(=O)c1ccc(CNS(C)(=O)=O)cc1S(=O)(=O)NC(=O)Nc1nc(OC)cc(OC)n1 [Mesosulfuron]
[3]; 2 g/ha
  Alopecurus aequalis mortality, measured value: 15
[3]; 4 g/ha
  Alopecurus aequalis mortality, measured value: 32
[3]; 8 g/ha
  Alopecurus aequalis mortality, measured value: 64
[4]; 2 g/ha
  Porippa islandica mortality, measured value: 12
[4]; 4 g/ha
  Porippa islandica mortality, measured value: 27
[4]; 8 g/ha
  Porippa islandica mortality, measured value: 61
[5]; 2 g/ha
  Capsella bursapastoris mortality, measured value: 10
[5]; 4 g/ha
  Capsella bursapastoris mortality, measured value: 30
[5]; 8 g/ha
  Capsella bursapastoris mortality, measured value: 59
[6]; 2 g/ha
  Lamium amplexicaule mortality, measured value: 13
[6]; 4 g/ha
  Lamium amplexicaule mortality, measured value: 26
[6]; 8 g/ha
  Lamium amplexicaule mortality, measured value: 55
[7]; 2 g/ha
  Wheat mortality, measured value: 0
[7]; 4 g/ha
  Wheat mortality, measured value: 0
[7]; 8 g/ha
  Wheat mortality, measured value: 1

## C[C@@H](Oc1ccc(Oc2nc3ccc(Cl)cc3o2)cc1)C(=O)N(C)c1ccccc1F [Metamifop, reference compound]
[8]; 25 g/ha
  Echinochloa crus mortality, measured value: 11%
  plant mortality, measured value: 11
[8]; 50 g/ha
  Echinochloa crus mortality, measured value: 26%
  plant mortality, measured value: 26
[8]; 100 g/ha
  Echinochloa crus mortality, measured value: 57%
  plant mortality, measured value: 57
[9]; 25 g/ha
  Digitaria sanguinalis mortality, measured value: 11%
  plant mortality, measured value: 11
[9]; 50 g/ha
  Digitaria sanguinalis mortality, measured value: 23%
  plant mortality, measured value: 23
[9]; 100 g/ha
  Digitaria sanguinalis mortality, measured value: 48%
  plant mortality, measured value: 48
[10]; 25 g/ha
  Abutilon theophrasti mortality, measured value: 0%
  plant mortality, measured value: 0
[10]; 50 g/ha
  Abutilon theophrasti mortality, measured value: 0%
  plant mortality, measured value: 0
[10]; 100 g/ha
  Abutilon theophrasti mortality, measured value: 0%
  plant mortality, measured value: 0
[11]; 25 g/ha
  Aeschynomene indica mortality, measured value: 0%
  plant mortality, measured value: 0
[11]; 50 g/ha
  Aeschynomene indica mortality, measured value: 0%
  plant mortality, measured value: 0
[11]; 100 g/ha
  Aeschynomene indica mortality, measured value: 0%
  plant mortality, measured value: 0
[12]; 25 g/ha
  Xanthium spinosum mortality, measured value: 0%
  plant mortality, measured value: 0
[12]; 50 g/ha
  Xanthium spinosum mortality, measured value: 0%
  plant mortality, measured value: 0
[12]; 100 g/ha
  Xanthium spinosum mortality, measured value: 0%
  plant mortality, measured value: 0

## COc1nc(C)nc(=NC(=O)NS(=O)(=O)c2ccccc2C(=O)O)[nH]1 [Metsulfuron]
[3]; 1 g/ha
  Alopecurus aequalis mortality, measured value: 0
[3]; 2 g/ha
  Alopecurus aequalis mortality, measured value: 0
[3]; 4 g/ha
  Alopecurus aequalis mortality, measured value: 0
[4]; 1 g/ha
  Porippa islandica mortality, measured value: 5
[4]; 2 g/ha
  Porippa islandica mortality, measured value: 20
[4]; 4 g/ha
  Porippa islandica mortality, measured value: 45
[5]; 1 g/ha
  Capsella bursapastoris mortality, measured value: 7
[5]; 2 g/ha
  Capsella bursapastoris mortality, measured value: 24
[5]; 4 g/ha
  Capsella bursapastoris mortality, measured value: 48
[6]; 1 g/ha
  Lamium amplexicaule mortality, measured value: 11
[6]; 2 g/ha
  Lamium amplexicaule mortality, measured value: 29
[6]; 4 g/ha
  Lamium amplexicaule mortality, measured value: 57
[7]; 1 g/ha
  Wheat mortality, measured value: 0
[7]; 2 g/ha
  Wheat mortality, measured value: 0
[7]; 4 g/ha
  Wheat mortality, measured value: 0

## CC(C)Oc1cc(-n2nc(C(C)(C)C)oc2=O)c(Cl)cc1Cl [Oxadiazon]
[1]; [13]
  pest or weed control at 500 g/ha: 30%
[2]; [14]
  pest or weed control at 500 g/ha: 30%

## CCC(CC)Nc1c([N+](=O)[O-])cc(C)c(C)c1[N+](=O)[O-] [Pendimethalin]
[1]; [13]
  pest or weed control at 250 g/ha: 30%
[2]; [14]
  pest or weed control at 250 g/ha: 20%

## O=C(Nc1ccc(F)cc1)c1cccc(Oc2cccc(C(F)(F)F)c2)n1 [Picolinafen]
[1]; 25 g ai/ha
  ryegrass mortality (measured value): 0
[2]; 25 g ai/ha
  Wild amaranth mortality (measured value): 25

## CS(=O)(=O)c1ccc(C(=O)C2C(=O)CCCC2=O)c(Cl)c1 [Sulcotrione]
[1]; [13]
  pest or weed control at 75 g/ha: 20%
[2]; [14]
  pest or weed control at 75 g/ha: 20%

## COc1cc(OC)nc(NC(=O)NS(=O)(=O)c2ncccc2OCC(F)(F)F)n1 [Trifloxysulfuron]
[8]; 1.25 g/ha
  Data (measured value) Echinochloa crus: 8
  plant mortality, measured value: 8
[8]; 5 g/ha
  Data (measured value) Echinochloa crus: 56
  plant mortality, measured value: 56
[9]; 1.25 g/ha
  Data (measured value) Digitaria sanguinalis: 8
  plant mortality, measured value: 8
[9]; 5 g/ha
  Data (measured value) Digitaria sanguinalis: 51
  plant mortality, measured value: 51
[10]; 1.25 g/ha
  Data (measured value) Abutilon theophrasti: 12
  plant mortality, measured value: 12
[10]; 5 g/ha
  Data (measured value) Abutilon theophrasti: 61
  plant mortality, measured value: 61
[11]; 1.25 g/ha
  Data (measured value) Aeschynomene indica: 9
  plant mortality, measured value: 9
[11]; 5 g/ha
  Data (measured value) Aeschynomene indica: 58
  plant mortality, measured value: 58
[12]; 1.25 g/ha
  Data (measured value) Xanthium spinosum: 13
  plant mortality, measured value: 13
[12]; 5 g/ha
  Data (measured value) Xanthium spinosum: 62
  plant mortality, measured value: 62
